# Measured values published in patent US12491185B2, “Inhibitors of mPTP” (NRG Therapeutics Ltd, priority 2023, dated 2025).
# Test system: mPTP
# Assay: mPTP activity (Ca2+ retention) assay in isolated rat liver mitochondria
# Format: biochemical
# Conditions: examples tested by different contract research organisations, believed comparable
# Source text: Pharmacological inhibition or modulation of the mPTP can be measured in well characterised ‘Ca^2+ retention’ assays performed in isolated mitochondria. In vitro, isolated mitochondria rapidly sequester exogenous Ca^2+ until the intramitochondrial Ca^2+ concentration reaches the threshold for mPTP activation. Once the pore is activated, mitochondrial integrity is compromised and the stored Ca^2+ is released. The distribution of Ca^2+ between extra- and intra-mitochondrial compartments can be measured in real time with the use of membrane-impermeant Ca^2+ sensitive fluorescent dyes. Depending on the configuration of the assay, inhibition or modulation of the mPTP either delays the opening of the pore or increases the concentration of Ca^2+ required to induce mPTP opening.
# MPTP activity was measured in mitochondria freshly isolated from female Sprague Dawley (250 to 300 gram) rat livers using the following method. Cervical dislocation was performed on the rat. The liver was then perfused in-situ with −40 ml cold Dulbecco's Phosphate Buffered Saline (DPBS) prior to dissection and transferred into 30 ml Isolation Buffer (250 mM Sucrose, 10 mM KCl, 1 mM EGTA, 1 mM EDTA, 25 mM HEPES, adjusted to pH 7.5 with 1M NaOH). Each lobe of the liver was then removed from the buffer, minced using tweezers and a scalpel into −5 mm pieces then transferred into a 50 ml Potterton dounce homogenization tube on ice containing 30 ml ice-cold centrifugation buffer (300 mM Trehalose, 25 mM HEPES, 1 mM EGTA, 1 mM EDTA, 10 mM KCl, adjusted to pH 7.5 with 1M NaOH and supplemented with 0.1% bovine serum albumin (BSA) and complete protease inhibitor cocktail (one tablet of inhibitor per 50 mls of buffer). Homogenisation was carried out using a teflon pestle at 1800 rpm. The slurry was centrifuged at 800 g for 10 min at 4° C., then the supernatant centrifuged at 10,000 g for 10 min. The pellet was washed once with FLIPR assay buffer (75 mM Mannitol, 25 mM Sucrose, 5 mM Potassium Phosphate Monobasic, 20 mM Tris base, 100 mM KCl, 0.1% BSA adjusted to pH 7.4 with 5M HCl) centrifuged again, then resuspended in FLIPR assay buffer to a concentration of 8.8 mg/ml protein.
# Tested compounds (10 mM stock in DMSO) were serially diluted in DMSO in half log steps to generate 10 test concentrations (final concentrations in assay 30 μM to 1 nM). An intermediate dilution of 5 μl DMSO samples into 247 μl FLIPR assay buffer was carried out prior to transfer of 5 μl into duplicate wells of a 384 well polypropylene assay plate. Control wells were 0.5% (v/v) DMSO and 5 μM cyclosporin A.
# A stock mitochondria/Fluo5N assay solution was prepared in 5.6 ml FLIPR assay buffer (at RT) supplemented with succinate disodium salt (10 mM), rotenone (1 μM), Fluo5N pentapotassium salt (2 μM) and 1 ml mitochondria suspension, then transferred (15 μl) into the assay plate containing test compounds and incubated for 10 min at RT. Assay plates were processed for fluorescence detection on either a FLIPR Tetra (Molecular Devices) or CLARIOstar (BMG) plate reader. For kinetic fluorescence detection on the FLIPR, dye fluorescence was measured every 3 sec for a total of 10 min. After 12 sec, a 2.5 μl bolus of CaCl2 (75 μM) was added from a source plate containing 675 μM CaCl2 in FLIPR assay buffer. Alternatively, the 2.5 μl addition of CaCl2 was performed using a Viaflow 384, plates were incubated at RT for 10 min, and dye fluorescence measured after 10 min on the CLARIOstar plate reader. pIC50 values for tested compounds were calculated using the fluorescence value collected at the 10 min timepoint on either plate reader, with % inhibition calculated using the DMSO control and cyclosporin A values as 0 and 100% respectively.
row,mPTP Rat liver pIC50,SMILES
1,<4.57,"CC(NC(=O)c1nn(C)c(=O)[nH]1)C(C)(C)Cc1ccccc1 (single isomer, unassigned) [Example 39A, N-(3,3-dimethyl-4-phenylbutan-2-yl)-1-methyl-5-oxo-4,5-dihydro-1H-1,2,4-triazole-3-carboxamide]"
2,4.71,"CC(C)[C@@H](CNC(=O)c1nn(C)c(=O)[nH]1)Cc1ccccc1 (single isomer, unassigned) [Example 46A]"
3,5.13,"O=C(NCC1(Cc2ccccc2)CCC1)c1ccnc(=O)[nH]1 [Example 6, N-((1-benzylcyclobutyl)methyl)-2-oxo-2,3-dihydropyrimidine-4-carboxamide]"
4,6.50,"CC(C)C(CNC(=O)c1nn(C)c(=O)[nH]1)Cc1ccccc1 (stereo not shown) [Example 45, N-(2-benzyl-3-methylbutyl)-1-methyl-5-oxo-4,5-dihydro-1H-1,2,4-triazole-3-carboxamide]"
5,5.44,"CCCC(CNC(=O)c1nn(C)c(=O)[nH]1)Cc1ccccc1 (stereo not shown) [Example 55, N-(2-benzylpentyl)-1-methyl-5-oxo-4,5-dihydro-1H-1,2,4-triazole-3-carboxamide]"
6,5.03,Cn1nc(C(=O)NCC2(C)Cc3ccccc3C2)[nH]c1=O [Example 58]
7,5.06,Cn1nc(C(=O)NCCC(C)(C)c2ccccc2)[nH]c1=O [Example 59]
8,5.10,Cn1nc(C(=O)NCC2CCc3ccccc3C2)[nH]c1=O (stereo not shown) [Example 60]
9,4.99,"COc1ccccc1CC1(CNC(=O)c2nn(C)c(=O)[nH]2)CCC1 [Example 61, N-((1-(2-methoxybenzyl)cyclobutyl)methyl)-1-methyl-5-oxo-4,5-dihydro-1H-1,2,4-triazole-3-carboxamide]"
10,4.65,"Cn1cc(C(=O)NCC2(Cc3ccccc3)CCC2)[nH]c1=O [Example 63, N-((1-benzylcyclobutyl)methyl)-1-methyl-2-oxo-2,3-dihydro-1H-imidazole-4-carboxamide]"
11,<4.52,"O=C1COCC(C(=O)NCC2(Cc3ccccc3)CCC2)N1 (stereo not shown) [Example 65, N-((1-benzylcyclobutyl)methyl)-5-oxomorpholine-3-carboxamide]"
12,<4.52,"O=C(NCC1(Cc2ccccc2)CCC1)c1nc2ccccc2c(=O)[nH]1 [Example 66, N-((1-benzylcyclobutyl)methyl)-4-oxo-3,4-dihydro-quinazoline-2-carboxamide]"
13,<4.52,"Cn1nc(C(=O)NCC(C)(C)Cc2ccccc2)ccc1=O [Example 67, N-(2,2-dimethyl-3-phenylpropyl)-1-methyl-6-oxo-1,6-dihydro-pyridazine-3-carboxamide]"
14,<4.52,"Cn1c(=O)[nH]cc(C(=O)NCC(C)(C)Cc2ccccc2)c1=O [Example 68, N-(2,2-dimethyl-3-phenylpropyl)-3-methyl-2,4-dioxo-1,2,3,4-tetrahydro-pyrimidine-5-carboxamide]"
15,<4.52,"CC(C)(CNC(=O)c1cc(C(F)(F)F)n[nH]1)Cc1ccccc1 [Example 69, N-(2,2-dimethyl-3-phenylpropyl)-3-(trifluoromethyl)-1H-pyrazole-5-carboxamide]"
16,4.85,"Cn1nc(C(=O)NCC(CO)Cc2ccccc2)[nH]c1=O (stereo not shown) [Example 70, N-(2-benzyl-3-hydroxypropyl)-1-methyl-5-oxo-4,5-dihydro-1H-1,2,4-triazole-3-carboxamide]"

row,mPTP Rat liver pIC50,SMILES
1,<4.52,"Cn1nc(C(=O)NC(CCc2ccccc2)CC(F)(F)F)[nH]c1=O (stereo not shown) [Example 71, 1-methyl-5-oxo-N-(1,1,1-trifluoro-5-phenylpentan-3-yl)-4,5-dihydro-1H-1,2,4-triazole-3-carboxamide]"
2,4.67,"CN(CC(C)(C)Cc1ccccc1)C(=O)c1nn(C)c(=O)[nH]1 [Example 72, N-(2,2-dimethyl-3-phenylpropyl)-N,1-dimethyl-5-oxo-4,5-dihydro-1H-1,2,4-triazole-3-carboxamide]"
3,5.84,"Cn1nc(C(=O)NCC2(Cc3ccc(F)cc3F)CCCCC2)[nH]c1=O [Example 73, N-((1-(2,4-Difluorobenzyl)cyclohexyl)methyl)-1-methyl-5-oxo-4,5-dihydro-1H-1,2,4-triazole-3-carboxamide]"
4,5.98,"CC[C@@H](Cc1ccccc1)[C@H](C)NC(=O)c1nn(C)c(=O)[nH]1 [Example 74, N-((2S,3S)-3-benzylpentan-2-yl)-1-methyl-5-oxo-4,5-dihydro-1H-1,2,4-triazole-3-carboxamide]"
5,5.77,"COc1cccc(CC2(CNC(=O)c3nn(C)c(=O)[nH]3)CCC2)c1 [Example 75, N-((1-(3-Methoxybenzyl)cyclobutyl)methyl)-1-methyl-5-oxo-4,5-dihydro-1H-1,2,4-triazole-3-carboxamide]"
6,5.65,"Cn1nc(C(=O)NCC2(Cc3ccccc3C(F)F)CCC2)[nH]c1=O [Example 76, N-((1-(2-(Difluoromethyl)benzyl)cyclobutyl)methyl)-1-methyl-5-oxo-4,5-dihydro-1H-1,2,4-triazole-3-carboxamide]"
7,4.78,"Cn1nc(C(=O)NCC2(Cc3cccc(C4CC4)c3)CCC2)[nH]c1=O [Example 77, N-((1-(3-Cyclopropylbenzyl)cyclobutyl)methyl)-1-methyl-5-oxo-4,5-dihydro-1H-1,2,4-triazole-3-carboxamide]"
8,5.27,"CCc1ccccc1CC1(CNC(=O)c2nn(C)c(=O)[nH]2)CCC1 [Example 82, N-((1-(2-Ethylbenzyl)cyclobutyl)methyl)-1-methyl-5-oxo-4,5-dihydro-1H-1,2,4-triazole-3-carboxamide]"
9,5.83,"Cn1nc(C(=O)NCC2(Cc3cccc(Cl)c3F)CCC2)[nH]c1=O [Example 85, N-((1-(3-Chloro-2-fluorobenzyl)cyclobutyl)methyl)-1-methyl-5-oxo-4,5-dihydro-1H-1,2,4-triazole-3-carboxamide]"
10,5.86,"Cc1cc(F)ccc1CC1(CNC(=O)c2nn(C)c(=O)[nH]2)CCC1 [Example 86, N-((1-(4-Fluoro-2-methylbenzyl)cyclobutyl)methyl)-1-methyl-5-oxo-4,5-dihydro-1H-1,2,4-triazole-3-carboxamide]"
11,5.57,"Cn1nc(C(=O)NCC2(Cc3ccc(F)cc3C(F)(F)F)CCC2)[nH]c1=O [Example 87, N-((1-(4-Fluoro-2-(trifluoromethyl)benzyl)cyclobutyl)methyl)-1-methyl-5-oxo-4,5-dihydro-1H-1,2,4-triazole-3-carboxamide]"
12,5.28,"O=C(NCC1(Cc2ccccc2)CCC1)c1noc(=O)[nH]1 [Example 88, N-((1-Benzylcyclobutyl)methyl)-5-oxo-4,5-dihydro-1,2,4-oxadiazole-3-carboxamide]"
13,6.05,"Cc1cccc(CC2(CNC(=O)c3nn(C)c(=O)[nH]3)CCC2)c1 [Example 89, 1-Methyl-N-((1-(3-methylbenzyl)cyclobutyl)methyl)-5-oxo-4,5-dihydro-1H-1,2,4-triazole-3-carboxamide]"
14,5.61,"Cn1nc(C(=O)NCC2(Cc3ccc(Cl)cc3F)CCC2)[nH]c1=O [Example 90, N-((1-(4-Chloro-2-fluorobenzyl)cyclobutyl)methyl)-1-methyl-5-oxo-4,5-dihydro-1H-1,2,4-triazole-3-carboxamide]"
15,5.75,"Cc1cc(Cl)ccc1CC1(CNC(=O)c2nn(C)c(=O)[nH]2)CCC1 [Example 91, N-((1-(4-Chloro-2-methylbenzyl)cyclobutyl)methyl)-1-methyl-5-oxo-4,5-dihydro-1H-1,2,4-triazole-3-carboxamide]"
